For the series the following is noted: for aqueous solubility: pH 6.8.

Converted amounts (≈) assume the structure as drawn.

Take `Cc1nn(Cc2cccc(Br)c2)c(C)c1C(=O)O`: the MDR1-MDCK efflux ratio came to 1.58; the intrinsic clearance, human liver microsomes was ≤ 4.74 mL/min/kg; the intrinsic clearance, rat liver microsomes was ≤ 10.7 mL/min/kg; the aqueous solubility amounted to 51.4 µg/mL (≈ 166 µM).

Regarding `CN(CC1CCCC1)C(=O)Nc1ccccc1N1CCOC1=O`, the MDR1-MDCK efflux ratio was determined as 5.03; the intrinsic clearance, human liver microsomes was 44.9 mL/min/kg; the intrinsic clearance, rat liver microsomes worked out at 541 mL/min/kg; the aqueous solubility was found to be 50.6 µg/mL (≈ 159 µM).

Compound `CCCCNc1nc2c(cc1C#N)CCC2` came in with an intrinsic clearance, human liver microsomes of 226 mL/min/kg and an intrinsic clearance, rat liver microsomes of 2310 mL/min/kg.

Take `COc1cc(CN2CCC(c3ccnc(C)n3)CC2)ccc1F`: the MDR1-MDCK efflux ratio is 0.674; the intrinsic clearance, human liver microsomes stood at 11.2 mL/min/kg; the intrinsic clearance, rat liver microsomes was 73.6 mL/min/kg; the aqueous solubility stood at 71 µg/mL (≈ 225 µM).

As for `Cc1sc2nc(CN3CCOCC3)nc(N3CCN(c4ccncc4)CC3)c2c1C`, the MDR1-MDCK efflux ratio is 28.9; the intrinsic clearance, human liver microsomes stood at 18.3 mL/min/kg; the intrinsic clearance, rat liver microsomes was found to be 281 mL/min/kg; the aqueous solubility turned out to be 76.6 µg/mL (≈ 180 µM).

Regarding `COc1nccnc1N1CCC(C(=O)Nc2cccc(F)c2)CC1`, the MDR1-MDCK efflux ratio stood at 0.629; the intrinsic clearance, human liver microsomes amounted to 182 mL/min/kg; the intrinsic clearance, rat liver microsomes was found to be 298 mL/min/kg.

For the compound `Cc1ccc(CNC(=O)c2cccs2)cn1`, the MDR1-MDCK efflux ratio is 0.842; the intrinsic clearance, human liver microsomes was ≤ 4.74 mL/min/kg; the intrinsic clearance, rat liver microsomes is ≤ 10.7 mL/min/kg; the aqueous solubility is 52.3 µg/mL (≈ 225 µM).

As for `Cc1nc(N2CCn3ccnc3C2)c2cnn(C)c2n1`, the MDR1-MDCK efflux ratio turned out to be 3.63; the intrinsic clearance, human liver microsomes was determined as 10.5 mL/min/kg; the intrinsic clearance, rat liver microsomes was ≤ 10.7 mL/min/kg; the aqueous solubility came to 32.9 µg/mL (≈ 122 µM).

On to `CN1CCC(OC(=O)Nc2ccc(Cl)c(Cl)c2)CC1`, for which the MDR1-MDCK efflux ratio was 0.397; the intrinsic clearance, human liver microsomes came out at 8.57 mL/min/kg; the intrinsic clearance, rat liver microsomes came out at 209 mL/min/kg; the aqueous solubility came out at 87.4 µg/mL (≈ 288 µM).

On to `O=C(CCN1C(=O)CCC1=O)Nc1cccc2ncccc12`, for which the MDR1-MDCK efflux ratio was found to be 11.3; the intrinsic clearance, human liver microsomes was ≤ 4.74 mL/min/kg; the intrinsic clearance, rat liver microsomes is ≤ 10.7 mL/min/kg; the aqueous solubility amounted to 45.2 µg/mL (≈ 152 µM).

Consider `CC1(c2nnc(-c3ccc4c(c3)OCCO4)o2)CCOCC1`, for which the MDR1-MDCK efflux ratio came to 0.742; the intrinsic clearance, human liver microsomes turned out to be 13.3 mL/min/kg; the intrinsic clearance, rat liver microsomes was 247 mL/min/kg; the aqueous solubility came out at 40.8 µg/mL (≈ 135 µM).

As for `Cc1ccc(-c2cnn3c(O)cc(Cn4cccn4)nc23)cc1`, the MDR1-MDCK efflux ratio was 2.46; the intrinsic clearance, human liver microsomes was found to be 18.3 mL/min/kg; the intrinsic clearance, rat liver microsomes is 225 mL/min/kg.

As for `CCc1nc(NC(=O)c2ccccc2F)sc1C`, the MDR1-MDCK efflux ratio came to 0.232; the intrinsic clearance, human liver microsomes was found to be 26 mL/min/kg; the intrinsic clearance, rat liver microsomes stood at 146 mL/min/kg; the aqueous solubility worked out at 23 µg/mL (≈ 87.1 µM).

For `Cc1ccc(F)cc1C(=O)N1CCc2c(nc(-c3ccccn3)nc2N(C)C)C1`, the intrinsic clearance, human liver microsomes stood at 8.74 mL/min/kg; the intrinsic clearance, rat liver microsomes was 61.6 mL/min/kg; the aqueous solubility worked out at 25.7 µg/mL (≈ 65.8 µM).

With `CCN(c1ccccc1)S(=O)(=O)c1ccc(C(F)(F)F)cc1`, the aqueous solubility stood at 1.4 µg/mL (≈ 4.25 µM).

`Cc1nsc(NCc2cncs2)n1`: the MDR1-MDCK efflux ratio amounted to 0.684; the intrinsic clearance, human liver microsomes is ≤ 4.74 mL/min/kg; the intrinsic clearance, rat liver microsomes is 16.8 mL/min/kg.

Consider `O=c1[nH]c2ccccc2n1C1CCN(S(=O)(=O)Cc2ccccc2)CC1`, for which the intrinsic clearance, human liver microsomes was determined as 79.4 mL/min/kg; the intrinsic clearance, rat liver microsomes worked out at 6660 mL/min/kg; the aqueous solubility was determined as 2.65 µg/mL (≈ 7.13 µM).

`CCCc1n[nH]c2c1C(C1CC=CCC1)C(C#N)=C(N)O2` (configuration not stated) yielded an aqueous solubility of 3.07 µg/mL (≈ 10.8 µM).

Turning to `Cc1cccc(NC(=O)CN2C(=O)N(C)C3(CCCCC3)C2=O)c1C`, the intrinsic clearance, human liver microsomes amounted to 506 mL/min/kg; the intrinsic clearance, rat liver microsomes amounted to 2640 mL/min/kg; the aqueous solubility amounted to 59.8 µg/mL (≈ 174 µM).

For the compound `C[C@H]1CN(C2COC2)CCN1c1ccc(Nc2cc(-c3ccnc(N4CCn5c(cc6c5CC(C)(C)C6)C4=O)c3CO)cn(C)c2=O)nc1`, the MDR1-MDCK efflux ratio was determined as 23.1; the fraction unbound, human plasma turned out to be 0.162; the intrinsic clearance, human liver microsomes stood at 14.8 mL/min/kg; the intrinsic clearance, rat liver microsomes was ≤ 10.7 mL/min/kg. Moreover, the aqueous solubility came to 46 µg/mL (≈ 69.3 µM).

Regarding `Cc1cc(F)ccc1C(=O)NCc1ccc(O)c(O)c1`, the intrinsic clearance, human liver microsomes is ≤ 4.74 mL/min/kg; the intrinsic clearance, rat liver microsomes stood at 83.9 mL/min/kg; the aqueous solubility came out at 40.5 µg/mL (≈ 147 µM).

For the compound `COc1cc2cc(N)c(C3CCN(C(=O)C(C)(C)C)CC3)nc2cc1OC`, the MDR1-MDCK efflux ratio came out at 5.8; the intrinsic clearance, human liver microsomes was 7.04 mL/min/kg; the intrinsic clearance, rat liver microsomes came out at 43.5 mL/min/kg; the aqueous solubility was determined as 53 µg/mL (≈ 143 µM).

In the case of `CC(=O)Nc1ccc(C(=O)N2CCc3ncncc3C2)cc1`, the MDR1-MDCK efflux ratio turned out to be 17.2; the intrinsic clearance, human liver microsomes is ≤ 4.74 mL/min/kg; the intrinsic clearance, rat liver microsomes is ≤ 10.7 mL/min/kg; the aqueous solubility was 33.7 µg/mL (≈ 114 µM).

For `CN(C)c1ncc(CN2CCC(Cc3ccc(F)cc3)CC2)s1`, the intrinsic clearance, human liver microsomes amounted to 43.1 mL/min/kg and the intrinsic clearance, rat liver microsomes turned out to be 2570 mL/min/kg.

For `CC(=O)N1CCCC(C(=O)N2CCc3c(cccc3C(C)C)C2)C1` (configuration not stated), the intrinsic clearance, human liver microsomes amounted to 46 mL/min/kg; the intrinsic clearance, rat liver microsomes came out at 506 mL/min/kg; the aqueous solubility came out at 55 µg/mL (≈ 167 µM).

The compound `Cc1ccc(NC(=O)c2nn(-c3ccccc3)nc2C)cc1` yielded an aqueous solubility of 0.29 µg/mL (≈ 0.992 µM).

Regarding `O=C(Cc1cn2ccccc2n1)N1CCC(n2c(=O)[nH]c3ccccc32)CC1`, the MDR1-MDCK efflux ratio came to 24.3; the intrinsic clearance, human liver microsomes was determined as 33.8 mL/min/kg; the intrinsic clearance, rat liver microsomes was found to be 389 mL/min/kg.

For `Cc1nnc(-c2ccc(N3CCC(Oc4ccccc4C(F)(F)F)CC3)nn2)s1`, the MDR1-MDCK efflux ratio came out at 0.485; the fraction unbound, human plasma stood at 0.00124; the intrinsic clearance, human liver microsomes is 14.4 mL/min/kg.

For `Cc1cc(C)c2ccc(C(=O)N3CCN(c4nc[nH]n4)CC3)cc2n1`, the MDR1-MDCK efflux ratio was 70.8; the intrinsic clearance, human liver microsomes is ≤ 4.74 mL/min/kg; the intrinsic clearance, rat liver microsomes turned out to be 16.8 mL/min/kg.

As for `CCOc1ccc2[nH]c(C(=O)N3CC[C@@](O)(CC(C)C)[C@@H](Oc4ccc(F)cc4)C3)c(C)c2c1`, the MDR1-MDCK efflux ratio was 6.74; the intrinsic clearance, human liver microsomes came to 109 mL/min/kg; the intrinsic clearance, rat liver microsomes is 943 mL/min/kg.

Consider `CC(C)c1nccn1Cc1nc(-c2cccs2)no1`, for which the intrinsic clearance, human liver microsomes was 13.6 mL/min/kg and the intrinsic clearance, rat liver microsomes was 1930 mL/min/kg.

On to `CC(=O)Nc1ccccc1OCCOc1ccc(Cl)cc1`, for which the MDR1-MDCK efflux ratio was found to be 0.373; the intrinsic clearance, human liver microsomes is 95.8 mL/min/kg; the intrinsic clearance, rat liver microsomes turned out to be 665 mL/min/kg.

Consider `Cc1nccc(-c2cn(Cc3ccccc3)c3cnccc23)n1`, for which the MDR1-MDCK efflux ratio was determined as 0.675; the fraction unbound, human plasma was 0.133; the fraction unbound, rat plasma was 0.161; the intrinsic clearance, human liver microsomes came to 51.4 mL/min/kg. This compound also had an intrinsic clearance, rat liver microsomes of 2130 mL/min/kg and an aqueous solubility of 33.7 µg/mL (≈ 112 µM).

By aqueous solubility is commonly meant the dissolved amount per volume that the medium holds.

(Values after the Biogen ADME set (Fang et al. 2023).)
